Source: US20070003987A1, “Screening method for substance binding to merozoite surface protein-1/42” (priority 2003, published 2007)
pIC50, pKd: −log10 of the molar value.

How the values were obtained:
MSP142 = MSP142 (Plasmodium falciparum, UniProt Q8I0U8); experiment: competition binding of analogues 258 and 264 against suramin; settings: MSP142 0.1 mg/ml, 1 hour
Procedure: MSP142 (0.1 mg/ml) and fixed concentrations of analogue 258 (5 μM) or 264 (10 μM) were premixed and 90 μL added to a 384-well black polypropylene plate. Suramin was added to give a final concentration in the range 0.01 to 200 μM in a total reaction volume of 100 μL. The plates were incubated at room temperature protected from light for 1 hour, and then read as before. Results are shown in FIG. 10, which is a graph of fluorescence (arbitary units) against concentration of suramin competitor for analogue 258 (white squares) and 264 (black circles).

P. falciparum MSP142 = biological target: T1, P. falciparum MSP142 (Plasmodium falciparum, UniProt Q8I0U8); experiment: binding of suramin to MSP1 by fluorimetry
T1 construct: was used to express a His6-tagged MSP142 protein; His6; made in house; host or cells: E. coli BL21 (DE3)
T1 sequence (Q8I0U8 1327-1699): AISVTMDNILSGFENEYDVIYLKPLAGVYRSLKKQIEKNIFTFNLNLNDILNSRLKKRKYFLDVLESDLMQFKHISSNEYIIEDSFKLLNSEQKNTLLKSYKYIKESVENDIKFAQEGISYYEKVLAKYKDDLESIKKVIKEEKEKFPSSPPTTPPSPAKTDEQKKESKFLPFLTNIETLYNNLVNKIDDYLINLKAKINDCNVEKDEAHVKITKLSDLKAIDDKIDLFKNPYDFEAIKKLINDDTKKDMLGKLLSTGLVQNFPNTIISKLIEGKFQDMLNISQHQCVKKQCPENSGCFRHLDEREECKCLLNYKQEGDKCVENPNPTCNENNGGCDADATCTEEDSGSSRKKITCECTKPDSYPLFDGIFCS
Procedure: The pETATPf MSP142 plasmid (described by Angov et al, 2003 Mol. Biochem. Parasitol. 128, 195-204) was used to express a His6-tagged MSP142 protein (P. falciparum 3D7 clone, Accession Number Z35327). The DNA was used to transform E. coli BL21 (DE3) cells and then clones were selected on plates of agar containing ampicillin. Cells expressing the modified MSP142 were grown to mid log phase (OD6000.5-0.8) at 37° C., then after the incubation temperature had been reduced to 25° C., the protein expression was induced by addition of 0.1 mM IPTG. After 2 h of further growth the bacterial cells were harvested by centrifugation. The resulting cell paste was resuspended in lysis buffer (10 mM sodium phosphate, 50 mM NaCl, 10 mM imidazole, pH 6.2) and lysed by microfluidization. […]
The intrinsic fluorescence of suramin was used to determine its capacity to bind to the various MSP1-derived proteins. The fluorescence was measured using a Perkin Elmer LS-3B or a Spex Fluoro Max 2 fluorimeter. Suramin was excited at a wavelength of 315 or 330 nm with 2.5 nm resolution, the emission spectra were measured at wavelengths ranging from 350-450 nm. Suramin and the MSP1 proteins were diluted in 20 mM NaH2PO4, 150 mM NaCl at pH 7.2 and analysed at 10 or 20° C. […] The Kd for the suramin-MSP1 binding was determined from three independent experiments. […]

[1] = biological target: T2, MSP119 from P. falciparum (Plasmodium falciparum, UniProt P04933, S1528A); experiment: NMR titration of 15N labelled MSP119 with suramin; type: binding
T2 construct: contained the 96 amino acid MSP119 fragment, preceded by a single His residue; N-terminal leader […]; (His6 + Factor Xa site); made in house; host or cells: Pichia pastoris (vector pPIC9K)
T2 sequence (P04933 1526-1618 S1528A): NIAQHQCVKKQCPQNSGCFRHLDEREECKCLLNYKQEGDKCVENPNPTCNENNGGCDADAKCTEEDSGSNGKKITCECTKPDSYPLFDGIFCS
From the text: (§1) Plasmodium falciparum MSP119 (Swiss-Prot 04933) was expressed from a synthetic gene optimised for Pichia pastoris expression (European Patent No. EP1180120). This construct, inserted at the SnaBI site of vector pPIC9K (Invitrogen), contained the N-terminal leader sequence YHHHHHHIEGRH preceding the MSP119 sequence. A point mutation (Ser3 to Ala) was also introduced to eliminate N-glycosylation at Asn1. Following purification of MSP119 as described previously (Morgan et al, 1999 J. Mol. Biol. 289, 113-122), the N-terminal tag was cleaved with Factor Xa (New England Biolabs) and MSP119 was purified by gel filtration (Superdex 200). The fmal product contained the 96 amino acid MSP119 fragment, preceded by a single His residue.
NMR experiments were carried out on Varian spectrometers operating at proton frequencies of 500, 600 and 800 MHz. Suramin (0.03-16.0 mM) ^1H spectra were recorded at 5 to 35° C. […] MSP119/suramin samples were examined with either unlablled or ^15N labelled MSP119 in 50 mM sodium phosphate and 100 mM NaCl in 90% H2O/10% D2O at pH 6.5 (pH values are pH meter readings uncorrected for deuterium isotope effects). […] 1D ^1H and 2D ^1H-^15N HSQC NMR spectra were recorded for each concentration of suramin. […]

[2] = biological target: T2, MSP119 from P. falciparum; experiment: binding of suramin by fluorimetry
From the text: as §1
The intrinsic fluorescence of suramin was used to determine its capacity to bind to the various MSP1-derived proteins. The fluorescence was measured using a Perkin Elmer LS-3B or a Spex Fluoro Max 2 fluorimeter. Suramin was excited at a wavelength of 315 or 330 nm with 2.5 nm resolution, the emission spectra were measured at wavelengths ranging from 350-450 nm. Suramin and the MSP1 proteins were diluted in 20 mM NaH2PO4, 150 mM NaCl at pH 7.2 and analysed at 10 or 20° C. Titrations were performed by adding aliquots of the suramin solution to the MSP1 solution. […] The Kd for the suramin-MSP1 binding was determined from three independent experiments.

Sequence of MSP142 (Q8I0U8 1327-1699): as the sequence (Q8I0U8 1327-1699) above

## Cc1ccc(C(=O)Nc2ccc(S(=O)(=O)O)c3cc(S(=O)(=O)O)cc(S(=O)(=O)O)c23)cc1NC(=O)c1cccc(NC(=O)Nc2cccc(C(=O)Nc3cc(C(=O)Nc4ccc(S(=O)(=O)O)c5cc(S(=O)(=O)O)cc(S(=O)(=O)O)c45)ccc3C)c2)c1 [suramin]
MSP142; IC50, displacement of analogue 258 from MSP1 by suramin, analogue 258 at 5 μM
  pIC50: 5.10
MSP142; IC50, displacement of analogue 264 from MSP1 by suramin, analogue 264 at 10 μM
  pIC50: 5.52
P. falciparum MSP142
  pKd: 6.66
P. falciparum MSP142; excited at 315 nm
  change of suramin emission intensity on binding to MSP142: pronounced increase in emission intensity
[1]
  pKd: ~1.82
[2]
  enhancement of suramin fluorescence on addition to MSP119: No fluorescence enhancement
